Data on 3 compounds can be found in patent US12275731B2, “Azaindole inhibitors of wild-type and mutant forms of LRRK2” (DANA-FARBER CANCER INSTITUTE, INC., priority 2018, dated 2025).

Test in all cases: KinomeScan profiling
Common to all, as to assay type: binding

The target of one experiment is CHEK2 (Homo sapiens, UniProt O96017). To be noted: CHEK2, 1 μM; read-out: % control. An outline of the steps:
(§1)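 1 μM cpd in DMSO; 468-kinase panel; readout RLU. % ctrl = (cpd − pos ctrl)/(neg ctrl − pos ctrl) ×100. Pos ctrl = 0%, DMSO = 100%. Hit cut-off <35%.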

For a further experiment, the target named is T1, HIPK4 (Homo sapiens, UniProt Q8NE63).
T1 sequence (Q8NE63 1-616): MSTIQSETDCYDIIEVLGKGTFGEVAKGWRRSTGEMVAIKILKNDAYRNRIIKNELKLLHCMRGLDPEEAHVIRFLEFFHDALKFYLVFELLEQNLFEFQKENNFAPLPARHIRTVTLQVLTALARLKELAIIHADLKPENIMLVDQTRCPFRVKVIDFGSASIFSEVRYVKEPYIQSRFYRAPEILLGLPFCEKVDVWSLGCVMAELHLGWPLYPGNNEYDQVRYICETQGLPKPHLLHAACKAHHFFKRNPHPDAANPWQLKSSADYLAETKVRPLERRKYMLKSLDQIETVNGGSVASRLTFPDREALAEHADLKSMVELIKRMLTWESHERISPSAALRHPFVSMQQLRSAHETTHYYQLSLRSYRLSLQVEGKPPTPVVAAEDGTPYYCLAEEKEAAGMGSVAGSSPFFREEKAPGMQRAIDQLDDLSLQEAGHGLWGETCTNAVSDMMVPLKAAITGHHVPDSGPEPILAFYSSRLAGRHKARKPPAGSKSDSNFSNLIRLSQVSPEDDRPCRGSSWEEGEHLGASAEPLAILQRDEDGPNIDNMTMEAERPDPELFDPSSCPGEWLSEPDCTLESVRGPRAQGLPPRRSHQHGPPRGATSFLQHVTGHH
The settings on record: HIPK4, 1 μM; read-out: % control. An outline of the steps:
as §1

For the next experiment, the target named is T2, AURKA (Homo sapiens, UniProt O14965).
T2 construct: purchased KinomeScan®
T2 sequence (O14965 1-403): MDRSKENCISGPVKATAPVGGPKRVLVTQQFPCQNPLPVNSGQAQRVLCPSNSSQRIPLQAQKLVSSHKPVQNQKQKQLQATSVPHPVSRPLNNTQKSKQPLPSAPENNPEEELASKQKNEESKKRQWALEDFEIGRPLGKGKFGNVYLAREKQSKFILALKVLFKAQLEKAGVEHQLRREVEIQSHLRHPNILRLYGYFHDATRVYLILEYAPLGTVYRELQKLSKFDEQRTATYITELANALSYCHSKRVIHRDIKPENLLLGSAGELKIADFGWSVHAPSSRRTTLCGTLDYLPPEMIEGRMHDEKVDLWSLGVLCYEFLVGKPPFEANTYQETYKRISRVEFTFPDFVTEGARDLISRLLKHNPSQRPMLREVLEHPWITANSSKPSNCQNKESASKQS
The settings on record: read-out: % control. An outline of the steps: as §1

In the next experiment the target is T3, MERTK (Homo sapiens, UniProt Q12866).
T3 sequence (Q12866 21-999): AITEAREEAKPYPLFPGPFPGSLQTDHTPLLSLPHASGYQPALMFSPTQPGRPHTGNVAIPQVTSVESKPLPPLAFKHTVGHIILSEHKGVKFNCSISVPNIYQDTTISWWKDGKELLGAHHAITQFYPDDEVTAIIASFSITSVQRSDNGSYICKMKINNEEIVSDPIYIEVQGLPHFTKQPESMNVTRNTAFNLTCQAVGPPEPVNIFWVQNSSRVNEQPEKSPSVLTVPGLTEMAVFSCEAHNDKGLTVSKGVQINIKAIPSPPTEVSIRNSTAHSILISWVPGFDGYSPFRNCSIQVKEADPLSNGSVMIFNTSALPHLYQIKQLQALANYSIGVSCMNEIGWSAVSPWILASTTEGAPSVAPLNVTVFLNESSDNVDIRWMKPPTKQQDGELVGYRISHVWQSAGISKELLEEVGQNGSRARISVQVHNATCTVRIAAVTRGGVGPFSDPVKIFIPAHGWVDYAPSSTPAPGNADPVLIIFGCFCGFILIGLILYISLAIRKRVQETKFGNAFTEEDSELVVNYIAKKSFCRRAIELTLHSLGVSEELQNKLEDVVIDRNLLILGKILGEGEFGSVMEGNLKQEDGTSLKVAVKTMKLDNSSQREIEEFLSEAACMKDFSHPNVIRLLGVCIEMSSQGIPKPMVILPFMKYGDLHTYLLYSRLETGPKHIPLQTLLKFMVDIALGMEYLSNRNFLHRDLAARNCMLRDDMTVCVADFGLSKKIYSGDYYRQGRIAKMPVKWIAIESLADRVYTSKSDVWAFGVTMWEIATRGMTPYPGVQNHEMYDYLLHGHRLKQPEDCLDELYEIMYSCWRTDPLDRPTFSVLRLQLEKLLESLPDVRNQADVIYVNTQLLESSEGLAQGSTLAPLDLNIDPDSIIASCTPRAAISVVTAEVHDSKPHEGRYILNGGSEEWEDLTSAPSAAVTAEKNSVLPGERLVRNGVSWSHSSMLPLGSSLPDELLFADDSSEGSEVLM
The settings on record: read-out: % control. An outline of the steps:
as §1

The target in another experiment is T4, SgK110 (Homo sapiens, UniProt P0C264).
T4 construct: purchased KinomeScan® (panel service)
T4 sequence (P0C264 1-359): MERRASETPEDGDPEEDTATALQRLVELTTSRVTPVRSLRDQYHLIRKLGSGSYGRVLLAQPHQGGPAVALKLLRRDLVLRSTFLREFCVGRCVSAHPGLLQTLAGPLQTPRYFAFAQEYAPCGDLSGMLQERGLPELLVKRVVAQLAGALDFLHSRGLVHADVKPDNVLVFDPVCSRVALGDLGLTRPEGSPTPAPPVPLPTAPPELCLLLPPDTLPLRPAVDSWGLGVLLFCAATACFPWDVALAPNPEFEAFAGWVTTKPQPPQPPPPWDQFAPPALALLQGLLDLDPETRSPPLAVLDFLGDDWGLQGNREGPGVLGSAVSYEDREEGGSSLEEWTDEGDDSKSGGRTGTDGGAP
To be noted: SgK110, 1 μM; read-out: % control. An outline of the steps:
as §1

Chain of CHEK2 (O96017 whole entry): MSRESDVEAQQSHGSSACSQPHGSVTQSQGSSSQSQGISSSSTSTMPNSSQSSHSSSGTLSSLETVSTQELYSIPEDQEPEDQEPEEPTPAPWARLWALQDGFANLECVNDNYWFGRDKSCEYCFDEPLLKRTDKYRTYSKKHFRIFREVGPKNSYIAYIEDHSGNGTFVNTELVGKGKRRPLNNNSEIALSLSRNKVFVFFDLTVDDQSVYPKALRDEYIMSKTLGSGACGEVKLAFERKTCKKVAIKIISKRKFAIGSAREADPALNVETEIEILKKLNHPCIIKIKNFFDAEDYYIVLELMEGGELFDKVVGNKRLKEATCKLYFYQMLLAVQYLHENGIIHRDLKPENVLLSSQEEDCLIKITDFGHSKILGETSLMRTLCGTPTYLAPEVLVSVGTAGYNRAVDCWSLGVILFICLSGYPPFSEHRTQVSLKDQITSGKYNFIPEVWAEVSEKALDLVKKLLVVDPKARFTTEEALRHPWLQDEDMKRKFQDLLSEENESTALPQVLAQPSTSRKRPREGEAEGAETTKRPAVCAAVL

On to `CNc1c(-c2ccc(C(=O)N3CCC(N4CCOCC4)CC3)cc2)cnc2[nH]cc(Cl)c12` [Compound 96, (4-(3-chloro-4-(methylamino)-1H-pyrrolo[2,3-b]pyridin-5-yl)phenyl)(4-morpholinopiperidin-1-yl)methanone], for which the remaining binding at 1 µM at CHEK2 was found to be 22%; at HIPK4, 64%; at AURKA it was 36%; on MERTK, 42%; on SgK110, 100%.
The corresponding values for `O=C(c1ccc(-c2cnc3[nH]cc(Cl)c3c2NC2CCCC2)cc1)N1CCC(N2CCOCC2)CC1` [Compound 101, (4-(3-chloro-4-(cyclopentylamino)-1H-pyrrolo[2,3-b]pyridin-5-yl)phenyl)(4-morpholinopiperidin-1-yl)methanone] are 92%, 79%, 82%, 41% and 100%.
The corresponding values for `CNc1c(-c2cnn([C@H]3CCN(C(C)=O)C[C@@H]3F)c2)cnc2[nH]cc(Cl)c12` [Compound 77, 1-((3S,4S)-4-(4-(3-chloro-4-(methylamino)-1H-pyrrolo[2,3-b]pyridin-5-yl)-1H-pyrazol-1-yl)-3-fluoropiperidin-1-yl)ethan-1-one] are 56%, 84%, 35%, 45% and 100%.
